Results taken from patent publication US12227488B2, “Small molecule degraders of Helios and methods of use” (DANA-FARBER CANCER INSTITUTE, INC., priority 2018, dated 2025).
Entries after “also recorded” stand apart in the source; their conditions may differ.

Tests used:
GSPT1 = GSPT1 (Homo sapiens, UniProt P15170+Q96SW2); assay: Cellular degradation assay, eGFP-GSPT1 fusion with mCherry reporter in Flp-In 293 cells; format: cell-based; set-up: expressed in transfected cells; host or cells: Flp-In 293; details: 5 h incubation, n=1
Method in brief: (§1)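 DC50,5 h derived by variable-slope nonlinear fit of the per-well ratio of GFP-positive to mCherry-positive cells, imaged after 5 h compound exposure at 0.5% DMSO.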

Ikaros = target: T1, Ikaros (Homo sapiens, UniProt Q13422+Q96SW2); assay: Immunoblot for Ikaros in Jurkat cells; format: cell-based; details: 24 h treatment
T1 construct: endogenous in cells; host or cells: Jurkat
Experimental: (§2) A focused library of imide analogs was synthesized and assessed for their ability to induce dimerization between CRBN and Helios in a time-resolved fluorescence energy transfer (TR-FRET) assay (FIG. 1A).
(§3) Cells were lysed in M-PER buffer (Thermo Scientific) containing protease/phosphatase inhibitor cocktail (Roche). Protein concentration was measured using a BCA assay (Pierce™) Equivalent amounts of each sample were loaded on 4-12% Bis-Tris gels (Invitrogen™) transferred to nitrocellulose membranes, and immunoblotted with the indicated antibodies. IRDye®800-labeled goat anti-rabbit IgG and IRDye®680-labeled goat anti-mouse IgG (LI-COR®) secondary antibodies were purchased from LI-COR®, and membranes were detected on an Odyssey® detection system (LI-COR® Biosciences).

SALL4 ZNF1-2 = target: T2, SALL4 ZNF1-2 (Homo sapiens, UniProt Q96SW2+Q9UJQ4); assay: Cellular degradation assay, eGFP-SALL4 ZnF1-2 fusion with mCherry reporter in Flp-In 293 cells; format: cell-based; details: 5 h incubation, n=1
T2 construct: IKZF1Δ, IKZF2Δ, GSPT1 and SALL4 ZnF1-2 were subcloned; expressed in transfected cells; host or cells: Flp-In 293
T2 sequence (Q9UJQ4 378-438 limits assumed): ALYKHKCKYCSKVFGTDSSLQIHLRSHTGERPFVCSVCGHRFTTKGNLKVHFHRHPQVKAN
T2 sequence (Q96SW2 whole entry, the tested form may be a part): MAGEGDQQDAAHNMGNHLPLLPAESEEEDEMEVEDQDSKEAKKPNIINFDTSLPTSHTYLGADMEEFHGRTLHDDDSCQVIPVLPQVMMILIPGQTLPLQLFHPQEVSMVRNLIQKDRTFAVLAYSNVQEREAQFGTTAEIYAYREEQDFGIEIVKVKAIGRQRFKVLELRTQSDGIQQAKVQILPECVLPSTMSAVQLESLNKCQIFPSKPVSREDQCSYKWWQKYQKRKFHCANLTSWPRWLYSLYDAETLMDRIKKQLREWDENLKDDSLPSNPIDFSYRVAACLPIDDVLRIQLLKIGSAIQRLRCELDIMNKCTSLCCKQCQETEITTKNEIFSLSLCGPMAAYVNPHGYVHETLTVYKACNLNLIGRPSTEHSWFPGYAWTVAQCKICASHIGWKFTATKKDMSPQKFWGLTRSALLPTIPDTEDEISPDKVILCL
T2 sequence (Q16531 whole entry partner, the tested form may be a part): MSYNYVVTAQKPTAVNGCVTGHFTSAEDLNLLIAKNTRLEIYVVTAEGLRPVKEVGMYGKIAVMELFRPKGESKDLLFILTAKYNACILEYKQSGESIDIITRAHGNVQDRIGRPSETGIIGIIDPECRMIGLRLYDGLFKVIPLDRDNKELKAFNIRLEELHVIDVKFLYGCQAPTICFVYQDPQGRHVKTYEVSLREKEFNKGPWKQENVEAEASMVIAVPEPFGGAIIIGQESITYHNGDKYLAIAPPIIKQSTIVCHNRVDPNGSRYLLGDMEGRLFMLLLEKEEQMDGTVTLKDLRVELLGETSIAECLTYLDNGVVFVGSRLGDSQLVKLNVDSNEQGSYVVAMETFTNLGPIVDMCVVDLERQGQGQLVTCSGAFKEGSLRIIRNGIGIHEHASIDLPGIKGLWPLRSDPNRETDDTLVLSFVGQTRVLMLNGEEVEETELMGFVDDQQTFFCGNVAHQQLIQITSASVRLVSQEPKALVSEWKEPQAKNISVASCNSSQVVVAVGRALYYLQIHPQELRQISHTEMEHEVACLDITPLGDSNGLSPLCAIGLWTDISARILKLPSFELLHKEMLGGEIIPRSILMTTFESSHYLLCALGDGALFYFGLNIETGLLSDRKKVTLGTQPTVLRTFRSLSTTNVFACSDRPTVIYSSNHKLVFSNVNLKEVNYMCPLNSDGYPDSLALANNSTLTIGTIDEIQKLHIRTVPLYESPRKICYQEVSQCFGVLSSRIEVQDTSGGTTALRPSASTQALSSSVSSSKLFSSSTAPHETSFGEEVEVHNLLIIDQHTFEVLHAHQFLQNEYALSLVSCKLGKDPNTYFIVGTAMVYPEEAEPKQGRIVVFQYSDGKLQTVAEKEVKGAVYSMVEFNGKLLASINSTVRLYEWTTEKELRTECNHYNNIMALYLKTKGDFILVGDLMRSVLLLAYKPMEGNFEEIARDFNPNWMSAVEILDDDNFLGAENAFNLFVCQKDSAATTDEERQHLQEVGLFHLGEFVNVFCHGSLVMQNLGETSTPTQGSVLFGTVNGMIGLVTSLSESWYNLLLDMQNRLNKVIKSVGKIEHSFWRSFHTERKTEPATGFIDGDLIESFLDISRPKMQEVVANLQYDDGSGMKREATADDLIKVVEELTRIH
Method in brief: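 Read-out is the ratio of GFP-positive to mCherry-positive cells per well, imaged at 488 and 561 nm right after 5-hour compound exposure (normalised to 0.5% DMSO). Cells: Flp-In 293 stably carrying eGFP-P2A-mCherry construct fused to SALL4 ZnF1-2.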

Helios = target: T3, Helios (Homo sapiens, UniProt Q96SW2+Q9UKS7); assay: Immunoblot for Helios in Jurkat cells; format: cell-based; details: Jurkat cells, 24 h treatment
T3 construct: endogenous in cells; host or cells: Jurkat
Experimental: as §2, §3
as §3, with “Odyssey” for “Odyssey®”

IKZF2 = assay: Cellular degradation assay, eGFP-IKZF2Δ fusion with mCherry reporter in Flp-In 293 cells; format: cell-based; details: 5 h incubation, n=1
Method in brief: as §1

CRBN and Helios (IKZF2) = target: T4, CRBN and Helios (IKZF2) (Homo sapiens, UniProt Q96SW2+Q9UKS7); assay: TR-FRET dimerization assay (CRBN-IKZF2 ternary complex formation); format: binding; details: for TR-FRET-IKZF2 (Normalized to CC-885): n=1
T4 construct: His (N); Strep (N)
T4 sequence (Q96SW2 whole entry): as the sequence (Q96SW2 whole entry, the tested form may be a part) above
T4 sequence (Q9UKS7 whole entry): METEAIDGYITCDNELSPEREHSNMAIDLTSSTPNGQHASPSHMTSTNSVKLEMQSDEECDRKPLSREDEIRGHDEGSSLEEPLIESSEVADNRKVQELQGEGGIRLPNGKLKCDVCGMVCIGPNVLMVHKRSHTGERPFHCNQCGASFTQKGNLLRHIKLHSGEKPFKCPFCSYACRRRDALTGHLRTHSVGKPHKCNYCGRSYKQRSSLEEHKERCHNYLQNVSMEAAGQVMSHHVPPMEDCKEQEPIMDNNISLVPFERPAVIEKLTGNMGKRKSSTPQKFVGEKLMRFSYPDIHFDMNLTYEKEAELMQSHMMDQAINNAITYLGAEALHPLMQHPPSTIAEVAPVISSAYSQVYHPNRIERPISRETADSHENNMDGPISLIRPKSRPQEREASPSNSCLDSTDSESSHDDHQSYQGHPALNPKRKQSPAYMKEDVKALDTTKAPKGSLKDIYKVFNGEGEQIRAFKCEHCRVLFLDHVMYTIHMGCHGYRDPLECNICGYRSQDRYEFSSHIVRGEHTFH
Method in brief: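 Compound-induced IKZF2 recruitment to CRBN was read as the 520/490 nm TR-FRET ratio after 15 min at rt. The mix held biotinylated IKZF2, BODIPY-labeled CRBN bound to DDB1 lacking the BPB propeller, tracer Tb-streptavidin and compound titrations; n=1, from ≥3 technical replicates per well.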

IKZF1 = target: T5, IKZF1 (Homo sapiens, UniProt Q13422); assay: Cellular degradation assay, eGFP-IKZF1Δ fusion with mCherry reporter in Flp-In 293 cells; format: cell-based; details: 5 h incubation, n=1
T5 construct: expressed in transfected cells; host or cells: Flp-In 293
T5 sequence (Q13422 83-213 isoform Q13422-7 limits assumed): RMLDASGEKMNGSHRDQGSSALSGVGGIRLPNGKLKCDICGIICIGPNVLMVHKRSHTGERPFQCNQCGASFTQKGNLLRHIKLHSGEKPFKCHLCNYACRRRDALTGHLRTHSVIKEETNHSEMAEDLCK
T5 sequence (Q96SW2 whole entry partner, the tested form may be a part): as the sequence (Q96SW2 whole entry, the tested form may be a part) above
T5 sequence (Q16531 2-1140 partner limits assumed): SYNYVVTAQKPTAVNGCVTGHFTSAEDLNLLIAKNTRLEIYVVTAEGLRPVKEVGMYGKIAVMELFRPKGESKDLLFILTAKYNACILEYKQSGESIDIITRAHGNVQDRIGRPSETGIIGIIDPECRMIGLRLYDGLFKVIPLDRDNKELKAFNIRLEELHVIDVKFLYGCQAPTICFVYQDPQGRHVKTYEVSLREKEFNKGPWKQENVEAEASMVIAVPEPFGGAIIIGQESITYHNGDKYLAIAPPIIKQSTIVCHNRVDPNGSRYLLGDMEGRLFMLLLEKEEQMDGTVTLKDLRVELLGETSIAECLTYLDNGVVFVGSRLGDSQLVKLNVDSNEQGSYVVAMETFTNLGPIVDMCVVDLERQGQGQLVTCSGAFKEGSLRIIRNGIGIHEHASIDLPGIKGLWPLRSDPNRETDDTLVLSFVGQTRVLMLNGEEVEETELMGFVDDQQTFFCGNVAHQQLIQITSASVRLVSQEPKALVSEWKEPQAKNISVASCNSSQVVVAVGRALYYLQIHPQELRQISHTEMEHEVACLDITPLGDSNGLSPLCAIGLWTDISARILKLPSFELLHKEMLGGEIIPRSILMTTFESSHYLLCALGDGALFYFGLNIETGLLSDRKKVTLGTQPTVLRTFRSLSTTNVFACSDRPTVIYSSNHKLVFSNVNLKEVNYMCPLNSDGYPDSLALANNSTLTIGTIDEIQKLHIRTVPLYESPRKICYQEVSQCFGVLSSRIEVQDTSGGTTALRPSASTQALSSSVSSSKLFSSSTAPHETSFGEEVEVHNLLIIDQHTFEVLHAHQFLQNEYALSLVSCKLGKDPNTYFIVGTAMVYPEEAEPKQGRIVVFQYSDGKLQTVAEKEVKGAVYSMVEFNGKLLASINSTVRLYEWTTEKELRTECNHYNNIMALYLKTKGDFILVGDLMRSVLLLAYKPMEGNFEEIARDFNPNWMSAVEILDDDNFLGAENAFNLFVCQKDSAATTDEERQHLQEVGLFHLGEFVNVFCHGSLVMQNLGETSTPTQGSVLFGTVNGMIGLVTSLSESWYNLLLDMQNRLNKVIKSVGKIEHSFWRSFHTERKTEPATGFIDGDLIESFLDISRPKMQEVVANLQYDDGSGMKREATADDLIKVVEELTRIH
Method in brief: as §1

[1] = compound concentration 2.00E−05
[2] = compound concentration 2.00E−06
[3] = compound concentration 2.00E−07
[4] = compound concentration 6.6667E−05
[5] = compound concentration 6.6667E−06
[6] = compound concentration 6.6667E−07 (667 nM)

SMILES: Cc1ccc(NC(=O)NCc2cccc(NC3=CC(=O)N(C4CCC(=O)NC4=O)C3=O)c2)cc1Cl (stereo not drawn) [Compound 44, 1-(3-chloro-4-methylphenyl)-3-(3-((1-(2,6-dioxopiperidin-3-yl)-2,5-dioxo-2,5-dihydro-1H-pyrrol-3-yl)amino)benzyl)urea]
- GSPT1 GFP/RFP Relative Abundance (GSPT1; [1]): 0.399
- GSPT1 GFP/RFP Relative Abundance (GSPT1; [2]): 0.504
- GSPT1 GFP/RFP Relative Abundance (GSPT1; [3]): 0.744
- Ikaros loss (immunoblot) (Ikaros): induced loss of both Ikaros and Helios
- SALL4 ZNF1-2 GFP/RFP Relative Abundance (SALL4 ZNF1-2; [1]): 0.888
- SALL4 ZNF1-2 GFP/RFP Relative Abundance (SALL4 ZNF1-2; [2]): 0.742
- SALL4 ZNF1-2 GFP/RFP Relative Abundance (SALL4 ZNF1-2; [3]): 0.702
- Helios loss (immunoblot) (Helios): induced loss of both Ikaros and Helios; also recorded: required 24 h treatment
- IKZF2 GFP/RFP Relative Abundance (IKZF2; [1]): 0.042
- IKZF2 GFP/RFP Relative Abundance (IKZF2; [2]): 0.079
- IKZF2 GFP/RFP Relative Abundance (IKZF2; [3]): 0.085
- TR-FRET signal (520/490 ratio), CRBN-Helios dimerization, in words (CRBN and Helios (IKZF2); FIG. 1B, 2A, 5): increased activity over CC-885 at all tested concentrations
- TR-FRET-IKZF2 (Normalized to CC-885) (CRBN and Helios (IKZF2); [4]): 1.223
- TR-FRET-IKZF2 (Normalized to CC-885) (CRBN and Helios (IKZF2); [5]): 1.191
- TR-FRET-IKZF2 (Normalized to CC-885) (CRBN and Helios (IKZF2); [6]): 1.119
- IKZF1 GFP/RFP Relative Abundance (IKZF1; [1]): 0.059
- IKZF1 GFP/RFP Relative Abundance (IKZF1; [2]): 0.071
- IKZF1 GFP/RFP Relative Abundance (IKZF1; [3]): 0.072

SMILES: Cc1ccc(NC(=O)NCCCNC2=CC(=O)N(C3CCC(=O)NC3=O)C2=O)cc1Cl (stereo not drawn) [Compound 47, 1-(3-chloro-4-methylphenyl)-3-(3-((1-(2,6-dioxopiperidin-3-yl)-2,5-dioxo-2,5-dihydro-1H-pyrrol-3-yl)amino)propyl)urea]
- GSPT1 GFP/RFP Relative Abundance (GSPT1; [1]): 0.034
- GSPT1 GFP/RFP Relative Abundance (GSPT1; [2]): 0.041
- GSPT1 GFP/RFP Relative Abundance (GSPT1; [3]): 0.036
- SALL4 ZNF1-2 GFP/RFP Relative Abundance (SALL4 ZNF1-2; [1]): 1.060
- SALL4 ZNF1-2 GFP/RFP Relative Abundance (SALL4 ZNF1-2; [2]): 1.039
- SALL4 ZNF1-2 GFP/RFP Relative Abundance (SALL4 ZNF1-2; [3]): 1.010
- IKZF2 GFP/RFP Relative Abundance (IKZF2; [1]): 1.019
- IKZF2 GFP/RFP Relative Abundance (IKZF2; [2]): 1.051
- IKZF2 GFP/RFP Relative Abundance (IKZF2; [3]): 0.995
- TR-FRET-IKZF2 (Normalized to CC-885) (CRBN and Helios (IKZF2); [4]): 0.288
- TR-FRET-IKZF2 (Normalized to CC-885) (CRBN and Helios (IKZF2); [5]): 0.230
- TR-FRET-IKZF2 (Normalized to CC-885) (CRBN and Helios (IKZF2); [6]): 0.191
- IKZF1 GFP/RFP Relative Abundance (IKZF1; [1]): 0.312
- IKZF1 GFP/RFP Relative Abundance (IKZF1; [2]): 0.298
- IKZF1 GFP/RFP Relative Abundance (IKZF1; [3]): 0.326
